Results on one compound are retold here after patent US20080132554A1, “CRYSTAL FORM OF 2-(3-FLUORO-4-HYDROXYPHENYL)-7-VINYL-1,3-BENZOXAZOL-5-OL” (WYETH, priority 2006, published 2008).

This data set can be described thus: Conversion of the crystal form when suspended and stirred in solvent. The data set is classed as physicochemical. The conditions noted are these: room temperature, seven days. The text has this:
The anhydrate crystal form (Form D) can be converted to other crystal forms under suitable conditions.

Structures are written as SMILES.

On to `C=Cc1cc(O)cc2nc(-c3ccc(O)c(F)c3)oc12` [Form D, 2-(3-fluoro-4-hydroxyphenyl)-7-vinyl-1,3-benzoxazol-5-ol], for which the “crystal form conversion after suspension and stirring” value reads like this: (in acetone) “another anhydrate crystal form is obtained”; (in ethanol) “another anhydrate crystal form is obtained”; (in methanol) “another anhydrate crystal form is obtained”; (in water) “most of the anhydrate crystal form is converted to a hydrate crystal form”.
